Earlier results, collected in patent US8815262B2, “Pharmaceutical composition and preparation for oral administration” (FUJIFILM Corporation, priority 2010, dated 2014).

Conditions: oral administration

In the case of `CC(=O)O[C@H]1C(=O)[C@@]2(C)[C@H]([C@H](OC(=O)c3ccccc3)[C@]3(O)C[C@H](OC(=O)[C@H](O)[C@@H](NC(=O)c4ccccc4)c4ccccc4)C(C)=C1C3(C)C)[C@]1(OC(C)=O)CO[C@@H]1C[C@@H]2O` [paclitaxel], the bioavailability is given as ≤ 4%.
